Drawing on PubChem BioAssay (NCI), this text covers GI50 and TGI for seven molecules.

Where “and” joins values, the source holds several entries; their conditions need not be identical. Equal values may be shown once.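 Interpolation was linear, between the two tested concentrations surrounding the appropriate level; five concentrations were tested over 48 hours in 96-well plates. GI50: concentration for 50% inhibition of growth. TGI is the concentration that stops growth completely.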

Test systems include LOX IMVI melanoma; TK-10 renal; MDA-MB-435; NCI-H23 lung; SF-539 CNS; OVCAR-4 ovarian; A549 NSCLC; KM12 colon.
Holding throughout (assay): NCI-60 cell line screen, 48 h

In the case of `CC1OC(OC2C(O[C@H]3CC[C@@]4(C)C(=CC[C@H]5[C@@H]6C[C@@H]7O[C@]8(CC[C@@H](C)CO8)[C@@H](C)[C@@H]7[C@@]6(C)CC[C@@H]54)C3)OC(CO)C(OC3OC(CO)C(O)C3O)C2O)C(O)C(O)C1O` (stereo partly drawn), the GI50 is 0.21 µM in the assay with LOX IMVI melanoma; 0.434 µM in the assay with MDA-MB-435; 1.23 µM in the assay on NCI-H23 lung; 0.343 µM in the assay on SF-539 CNS; 1.08 µM with OVCAR-4 ovarian; 0.203 µM in the assay on A549 NSCLC. Further, the GI50 in the assay with KM12 colon is 0.287 µM. In addition, the TGI was 1.19 µM and 0.517 µM in the assay on LOX IMVI melanoma; 2.85 µM and 2.24 µM in the assay on TK-10 renal; 2 µM and 1.57 µM with MDA-MB-435; 1.6 µM and 2.47 µM with NCI-H23 lung; 1.3 µM and 1.08 µM in the assay on SF-539 CNS; 2.2 µM and 2.26 µM in the assay with OVCAR-4 ovarian. For the same molecule, the TGI in the assay with A549 NSCLC is 1.3 µM and 0.367 µM; with KM12 colon it was 2.39 µM and 0.849 µM.
With `Oc1ccccc1C=Nc1nc(OCc2ccccc2)nc2[nH]ncc12`, the GI50 in the assay on LOX IMVI melanoma is 18 µM; in the assay on TK-10 renal, 10.6 µM; with MDA-MB-435, 20.7 µM; in the assay on NCI-H23 lung, 15.4 µM; in the assay with SF-539 CNS, 22.1 µM; in the assay with OVCAR-4 ovarian, 23.5 µM. The GI50 with A549 NSCLC is 38.7 µM; in the assay with KM12 colon, 20.4 µM. Besides, the TGI with LOX IMVI melanoma was determined as 46.2 µM; in the assay on TK-10 renal, 32.8 µM; in the assay on MDA-MB-435, 44.8 µM; in the assay on NCI-H23 lung it was 79.7 µM; with SF-539 CNS, 43 µM; with OVCAR-4 ovarian, 69.6 µM. For the same molecule, the TGI in the assay on A549 NSCLC was more than 100 µM; in the assay with KM12 colon, 47.1 µM.
In the case of `NC(N)=N/N=C/c1c(-c2ccncc2)nc2sc(Cl)cn12`, the GI50 with LOX IMVI melanoma is 3.03 µM; in the assay with TK-10 renal, 5.26 µM; with MDA-MB-435, 6.63 µM; in the assay with NCI-H23 lung, 10 µM; in the assay on SF-539 CNS it was 7.06 µM; in the assay on OVCAR-4 ovarian, 1.57 µM. For the same molecule, the GI50 in the assay on A549 NSCLC is 20.2 µM; in the assay with KM12 colon, 2.48 µM. Further, the TGI with LOX IMVI melanoma was 9.55 µM; with TK-10 renal it was 10.9 µM; in the assay with MDA-MB-435, 13.6 µM; in the assay on NCI-H23 lung, 24.1 µM; in the assay on SF-539 CNS it was 13.7 µM; with OVCAR-4 ovarian, 6.16 µM. Also, the TGI turned out to be 40.4 µM with A549 NSCLC and 10.8 µM in the assay with KM12 colon.
For the molecule `COC(=O)[C@H](Cc1cn(C)cn1)NC(=O)[C@@H](NC(=O)Nc1cc(C(F)(F)F)cc(C(F)(F)F)c1)C(C)C`, the GI50 in the assay on LOX IMVI melanoma was 1.74 µM; with TK-10 renal, 9.9 µM; in the assay with MDA-MB-435, 6.11 µM; in the assay with NCI-H23 lung, 4.6 µM; in the assay on SF-539 CNS, more than 10 µM; in the assay with OVCAR-4 ovarian it was 4.58 µM. The GI50 is more than 10 µM with A549 NSCLC and 1.98 µM in the assay on KM12 colon. In addition, the TGI in the assay with LOX IMVI melanoma was 3.4 µM; in the assay with TK-10 renal, more than 10 µM; in the assay on MDA-MB-435, more than 10 µM; with NCI-H23 lung, more than 10 µM; with SF-539 CNS, more than 10 µM; in the assay on OVCAR-4 ovarian, more than 10 µM. For the same molecule, the TGI with A549 NSCLC was more than 10 µM; with KM12 colon, 4.22 µM.
On to `COc1ccc(Cc2nc3cc(OC)c(OC)cc3c(=O)[nH]2)cc1`, for which the GI50 with LOX IMVI melanoma is 10.9 µM; in the assay on TK-10 renal it was 11.8 µM; with MDA-MB-435, 5.15 µM; with NCI-H23 lung it was 4.03 µM; in the assay with SF-539 CNS, 7.97 µM; in the assay on OVCAR-4 ovarian it was 25.4 µM. For the same molecule, the GI50 is 3.61 µM in the assay with A549 NSCLC and 2.68 µM in the assay on KM12 colon. In addition, the TGI in the assay with LOX IMVI melanoma was more than 100 µM; with TK-10 renal, 54 µM; in the assay on MDA-MB-435 it was 57.1 µM; in the assay with NCI-H23 lung, 33.1 µM; with SF-539 CNS, 39.7 µM; in the assay with OVCAR-4 ovarian, more than 100 µM. Also, the TGI in the assay with A549 NSCLC was more than 54.3 µM; in the assay on KM12 colon it was 10.4 µM.
As to `Nc1ncnc2c1nc(Cl)n2C1OC(CO)C(O)C1O` (stereo not drawn), the TGI is more than 100 µM with LOX IMVI melanoma; more than 32.7 µM with TK-10 renal; more than 100 µM in the assay with MDA-MB-435; more than 100 µM in the assay on NCI-H23 lung; more than 94.7 µM in the assay on SF-539 CNS; more than 100 µM in the assay with OVCAR-4 ovarian. The TGI in the assay on A549 NSCLC and in the assay with KM12 colon was more than 100 µM throughout.
In the case of `CCSc1ncc(Br)c(Sc2nc(N)nc3nc[nH]c23)n1`, the GI50 was 2.39 µM in the assay with LOX IMVI melanoma; 2.55 µM in the assay with TK-10 renal; 3.72 µM in the assay with MDA-MB-435; 2.69 µM in the assay on NCI-H23 lung; 3.52 µM with SF-539 CNS; 2.29 µM in the assay on OVCAR-4 ovarian. In addition, the GI50 in the assay with A549 NSCLC is 21 µM; in the assay with KM12 colon, 7.05 µM. Moreover, the TGI was more than 100 µM with LOX IMVI melanoma; 25.9 µM in the assay with TK-10 renal; more than 100 µM with MDA-MB-435; more than 100 µM with NCI-H23 lung; 31.5 µM in the assay with SF-539 CNS; 30.5 µM in the assay with OVCAR-4 ovarian. The TGI in the assay with A549 NSCLC and with KM12 colon was more than 100 µM each time.
